According to publication PMC9905601, “Archaeal DNA-import apparatus is homologous to bacterial conjugation machinery” (Nature Communications, 2023):

Biological target: T1, P. calidifontis protein Pcal_0765, TedC (Pyrobaculum calidifontis, UniProt A3MU74)
T1 sequence (A3MU74 23-153): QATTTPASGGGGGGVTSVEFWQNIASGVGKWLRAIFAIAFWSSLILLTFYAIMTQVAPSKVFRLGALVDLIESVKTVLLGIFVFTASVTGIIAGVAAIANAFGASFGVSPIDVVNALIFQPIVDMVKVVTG
Experiment: cryo-EM structure of native pilus, […] Å
Type: binding

C[C@@H]1CCC[C@H](C)CCC[C@@H](C)CC[C@H](C)CCC[C@@H](C)CCC[C@H](C)CCC[C@H](C)CCOC[C@H](CO)OCC[C@H](C)CCC[C@H](C)CCC[C@H](C)CCC[C@@H](C)CC[C@H](C)CCC[C@@H](C)CCC[C@H](C)CCC[C@H](C)CCOC[C@H](CO)OCC[C@H](C)CCC1 [GDGT-0]
cryo-EM structure of native pilus, 4.0 Å: we have modeled the simplest form, GDGT-0, into the cryo-EM density
